Data: PMC5923397, “A New Breviane Spiroditerpenoid from the Marine-Derived Fungus Penicillium sp. TJ403-1” (Marine Drugs, 2018)

Experiments:
A-549 = assay: Cytotoxicity assay (MTT), A-549; format: cell-based, human; conditions: 48 h exposure
Method: (§1) Five human tumor cell lines (HL-60, MM231, A-549, HEP3B, and SW480), together with one non-cancerous cell line, the human normal colonic epithelial cell NCM460, were used in the cytotoxic activity assay. All cells were cultured in DMEM or RPMI-1640 medium (HyClone, Logan, UT, USA), supplemented with 10% fetal bovine serum (HyClone) at 37 °C in a humidified atmosphere with 5% CO2. The cell survival assay was performed using the MTT method. Briefly, 100 μL suspended cells at an initial density of 1 × 10^5 cells/mL were seeded into each well of the 96-well culture plates and allowed to adhere for 12 h before addition of the test compounds. […] After incubation, culture supernatants were removed and exchanged with medium containing 0.5 mg/mL MTT. Then, after 4 h incubation in darkness at 37 °C, the medium was removed, and cells were added with 100 μL dimethyl sulfoxide. The absorbance at 570 nm was measured and data are expressed as averages of three replicates. The value of inhibition was calculated by using the following formula: % inhibition = (1 − ODtreated/ODcontrol) × 100. The IC50 values were calculated by using a standard dose-response curve fitting with Prism (version 5.0, GraphPad Software, La Jolla, CA, USA).

SW480 = assay: Cytotoxicity assay (MTT), SW480; format: cell-based, human; conditions: SW480 (colon cancer), 48 h exposure
Method: as §1

MM231 = assay: Cytotoxicity assay (MTT), MM231; format: cell-based, human; conditions: MM231 (breast cancer), 48 h exposure
Method: as §1

NCM460 = assay: Cytotoxicity assay (MTT), normal colonic epithelial cell NCM460; format: cell-based, human; conditions: for IC50: MTT, 48 h exposure
Method: as §1

HEP3B = assay: Cytotoxicity assay (MTT), HEP3B; format: cell-based, human; conditions: HEP3B (hepatic cancer), 48 h exposure
Method: as §1

HL-60 = assay: Cytotoxicity assay (MTT), HL-60; format: cell-based; conditions: Homo sapiens, HL-60 (acute leukemia), 48 h exposure
Method: as §1

[1] = Homo sapiens, A549, A-549 (lung cancer)

With `N.N.[Cl][Pt][Cl]` [Cis-platin, cis-platin, reference compound] the IC50 (A-549; A-549 (lung cancer)) was 2.79 ± 0.36 µM, the IC50 (SW480) was 1.42 ± 0.11 µM and the IC50 (MM231) was 3.84 ± 0.25 µM. It also gave an IC50 (NCM460) of 0.85 ± 0.07 µM and an IC50 (HEP3B) of 2.96 ± 0.22 µM.
With `CC(=O)O[C@H]1C(=O)[C@@]2(C)[C@H]([C@H](OC(=O)c3ccccc3)[C@]3(O)C[C@H](OC(=O)[C@H](O)[C@@H](NC(=O)c4ccccc4)c4ccccc4)C(C)=C1C3(C)C)[C@]1(OC(C)=O)CO[C@@H]1C[C@@H]2O` [Paclitaxel, paclitaxel, reference compound] the IC50 (A-549; [1]) was less than 0.008 µM, the IC50 (SW480; Homo sapiens) was less than 0.008 µM and the IC50 (HL-60) was less than 0.008 µM. For the same compound, the IC50 (MM231; Homo sapiens) was less than 0.008 µM, the IC50 (NCM460; Homo sapiens) was less than 0.008 µM and the IC50 (HEP3B; Homo sapiens) was less than 0.008 µM.
Compound `CC1=CC(O)C2C3(C)C(O)CC(=O)C(C)(C)C3CCC2(C)C12Cc1c(c(C)c(C)oc1=O)O2` (stereo not drawn) [compound 1, brevione O] has an IC50 (A-549; [1]) greater than 40 µM, an IC50 (SW480; Homo sapiens) greater than 40 µM and an IC50 (HL-60) greater than 40 µM. For the same compound, the IC50 (MM231; Homo sapiens) was greater than 40 µM, the IC50 (NCM460; Homo sapiens) was greater than 40 µM and the IC50 (HEP3B; Homo sapiens) was greater than 40 µM.
`CC1=C[C@H](O)[C@@H]2[C@@]3(C)C=CC(=O)C(C)(C)[C@@H]3CC[C@@]2(C)[C@]12Cc1c(c(C)c(C)oc1=O)O2` [compound 2, brevione I] gave an IC50 (A-549; [1]) of 8.6 ± 1.36 µM, an IC50 (SW480; Homo sapiens) of 21.2 ± 2.72 µM and an IC50 (HL-60) of 4.92 ± 0.65 µM. The IC50 (MM231; Homo sapiens) was greater than 40 µM, the IC50 (NCM460; Homo sapiens) was greater than 40 µM and the “cytotoxic activity against the NCM460 cell” value (NCM460; result in words) was “no cytotoxic activity”. The IC50 (HEP3B; Homo sapiens) was 5.5 ± 0.67 µM.
Compound `CC1=C[C@H](O)[C@@H]2[C@@]3(C)CCC(=O)C(C)(C)[C@@H]3CC[C@@]2(C)[C@]12Cc1c(c(C)c(C)oc1=O)O2` [compound 3, brevione J] has an IC50 (A-549; [1]) greater than 40 µM, an IC50 (SW480; Homo sapiens) greater than 40 µM and an IC50 (HL-60) of 25.6 ± 3.84 µM. For the same compound, the IC50 (MM231; Homo sapiens) was greater than 40 µM, the IC50 (NCM460; Homo sapiens) was greater than 40 µM and the IC50 (HEP3B; Homo sapiens) was greater than 40 µM.
`CC1=CC(=O)C[C@@H]2O[C@@H]3C=C(C)[C@@]45Oc6c(C)c(C)oc(=O)c6[C@@H]4O[C@H](O)[C@]54CC[C@@H]1[C@@]2(C)[C@@H]34` [compound 4, brevione H] gave an IC50 (A-549; [1]) greater than 40 µM, an IC50 (SW480; Homo sapiens) greater than 40 µM and an IC50 (HL-60) greater than 40 µM. For the same compound, the IC50 (MM231; Homo sapiens) was greater than 40 µM, the IC50 (NCM460; Homo sapiens) was greater than 40 µM and the IC50 (HEP3B; Homo sapiens) was greater than 40 µM.
In the case of `C=CC(C)(C)C12CC3C(=O)NC(C(C)C)C(=O)N3C1N(C(C)=O)c1ccccc12` (stereo not drawn) [compound 5, brevicompanine G], the IC50 (A-549; [1]) is reported as 18.4 ± 2.15 µM, the IC50 (SW480; Homo sapiens) is reported as greater than 40 µM and the IC50 (HL-60) is reported as 21.8 ± 3.48 µM. For the same compound, the IC50 (MM231; Homo sapiens) was greater than 40 µM, the IC50 (NCM460; Homo sapiens) was greater than 40 µM and the IC50 (HEP3B; Homo sapiens) was greater than 40 µM.
